According to patent publication EP4745134A1 (Jiangsu Yahong Meditech Co., Ltd., priority 2023, dated 2025):

Columns and labels:
PRMT5-MTA = PRMT5-MTA (Homo sapiens, UniProt O14744); experiment: Enzymatic inhibitory activity against PRMT5-MTA (AlphaScreen); type: biochemical; conditions: read-out: IC50
Procedure, shortened: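 PRMT5/[…] (1 nM) was preincubated for 30 min at room temperature with 1 µM […] and 2.5 µM SAM, then exposed to compound (10-point, 3-fold from 1000 nM) for 15 min at 23 °C. Histone H4 substrate (5 nM) was added and reacted for 45 min at 23 °C. Symmetric dimethyl-R3 H4 was detected by AlphaScreen and IC50 calculated.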

HCT116 MTAP KO cells = experiment: Inhibitory activity against cell proliferation (CellTiter Glo, 6 days), HCT116 MTAP KO; type: cell-based; conditions: for IC50: Homo sapiens, HCT-116, 144 h, HCT116 MTAP KO cells, 6 days, CellTiter Glo, read-out: HCT116 MTAP KO IC50; for Selectivity HCT 116-WT/ HCT116 MTAP KO: ratio of IC50 HCT116-WT / HCT116 MTAP KO
Procedure, shortened: (§1)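 Following overnight attachment of 250 cells per well in McCoy's 5A medium with 10% FBS, compounds spanning 8 concentrations (4-fold, top 10000 nM) were applied for 6 days. Growth inhibition IC50 was derived from luminescent ATP signal.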

HCT116-WT cells = experiment: Inhibitory activity against cell proliferation (CellTiter Glo, 6 days), HCT116-WT; type: cell-based; conditions: 144 h, HCT116-WT cells, 6 days, CellTiter Glo; read-out: HCT116-WT IC50
Procedure, shortened: as §1

Chain of PRMT5-MTA (O14744 whole entry): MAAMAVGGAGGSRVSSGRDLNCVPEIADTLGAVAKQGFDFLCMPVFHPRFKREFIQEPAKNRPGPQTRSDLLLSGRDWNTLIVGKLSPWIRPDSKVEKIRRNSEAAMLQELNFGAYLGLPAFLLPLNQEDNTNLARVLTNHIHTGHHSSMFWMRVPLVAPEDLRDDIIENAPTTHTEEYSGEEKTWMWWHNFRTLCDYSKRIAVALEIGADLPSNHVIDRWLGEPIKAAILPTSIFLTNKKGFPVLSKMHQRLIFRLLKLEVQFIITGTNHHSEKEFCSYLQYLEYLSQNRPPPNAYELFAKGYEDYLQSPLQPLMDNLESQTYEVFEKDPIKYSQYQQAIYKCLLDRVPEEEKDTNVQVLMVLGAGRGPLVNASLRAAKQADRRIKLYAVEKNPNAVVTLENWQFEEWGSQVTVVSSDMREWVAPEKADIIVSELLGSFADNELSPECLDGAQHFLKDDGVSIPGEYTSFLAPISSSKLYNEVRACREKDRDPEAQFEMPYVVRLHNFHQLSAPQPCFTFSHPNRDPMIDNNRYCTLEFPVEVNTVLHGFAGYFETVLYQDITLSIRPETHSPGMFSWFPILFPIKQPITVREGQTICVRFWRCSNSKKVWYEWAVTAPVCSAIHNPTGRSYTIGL
Chain of PRMT5-MTA (Q9BQA1 whole entry partner): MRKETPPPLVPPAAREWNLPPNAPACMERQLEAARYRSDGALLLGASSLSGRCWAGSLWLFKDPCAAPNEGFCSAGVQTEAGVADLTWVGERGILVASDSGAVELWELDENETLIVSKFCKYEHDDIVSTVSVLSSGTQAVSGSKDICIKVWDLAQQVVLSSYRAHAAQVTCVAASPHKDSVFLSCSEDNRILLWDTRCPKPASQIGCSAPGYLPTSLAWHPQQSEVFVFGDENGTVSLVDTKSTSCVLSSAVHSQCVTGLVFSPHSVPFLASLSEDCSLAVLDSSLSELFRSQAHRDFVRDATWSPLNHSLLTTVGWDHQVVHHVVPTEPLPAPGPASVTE

Row | SMILES | IC50 (PRMT5-MTA) | IC50 (HCT116 MTAP KO cells) | Selectivity HCT 116-WT/ HCT116 MTAP KO (HCT116 MTAP KO cells) | IC50 (HCT116-WT cells)
1 | Cc1cc2cc(C(=O)N(Cc3ccc(-c4nncs4)cn3)N(C)c3nccc4nccnc34)ccc2nc1N [Example 232, N-((5-(1,3,4-thiadiazol-2-yl)pyridin-2-yl)methyl)-2-amino-N',3-dimethyl-N'-(pyrido[3,4-b]pyrazin-5-yl)quinoline-6-carbohy drazide] | 4.3 nM | 46 nM | 21.63 | 995 nM
2 | Cc1cc2cc(C(=O)N(Cc3ccc(-c4cnn(CF)c4)cn3)N(C)c3ncccn3)ccc2nc1N [Example 233, 2-amino-N-((5-(1-(fluoromethyl)-1H-pyrazol-4-yl)pyridin-2-yl)methyl)-N',3-dimet hyl-N'-(pyrimidin-2-yl)quinoline-6-carbo hydrazide] | 4.4 nM | 39 nM | 26.28 | 1020 nM
3 | Cc1cc2cc(C(=O)N(Cc3ccc(-c4scnc4C)cn3)N(C)c3ncccn3)ccc2nc1N [Example 235, 2-amino-N',3-dimethyl-N-((5-(4-methylthiazol-5-yl)pyridin-2-yl)methyl)-N'-(pyrimidin-2-yl)quinoline-6-carbohydrazide] | 3.8 nM | 5.7 nM | 32.11 | 183 nM
4 | Cc1cc2cc(C(=O)N(Cc3ccc(-c4scnc4CO)cn3)N(C)c3ncccn3)ccc2nc1N [Example 236, 2-amino-N-((5-(4-(hydroxymethyl)thiazo 1-5-yl)pyridin-2-yl)methyl)-N',3-dimethyl -N'-(pyrimidin-2-yl)quinoline-6-carbohyd razide] | 6 nM | 26 nM | 42.85 | 1110 nM
5 | Cc1cc2cc(C(=O)N(Cc3ccc(-c4scnc4C(F)(F)F)cn3)N(C)c3ncccn3)ccc2nc1N [Example 237, 2-amino-N',3-dimethyl-N'-(pyrimidin-2-yl)-N-((5-(4-(trifluoromethyl)thiazol-5-yl)pyridin-2-yl)methyl)quinoline-6-carbohydrazide] | 8 nM | 32 nM | 36.97 | 1180 nM
6 | [2H]c1nc(C)c(-c2ccc(CN(C(=O)c3ccc4nc(N)c(C)cc4c3)N(c3ncccn3)C3CC3)nc2)s1 [Example 238, 2-amino-N'-cyclopropyl-3-methyl-N-((5-(4-methylthiazol-5-yl-2d)pyridin-2-yl)methyl)-N'-(pyrimidin-2-yl)quinoline-6-carbohydrazide] | 5.7 nM | 5.1 nM | 21.96 | 112 nM
7 | Cc1cc2cc(C(=O)N(Cc3ccc(-c4scnc4C(F)F)cn3)N(c3ncccn3)C3CC3)ccc2nc1N [Example 239, 2-amino-N'-cyclopropyl-N-((5-(4-(difluoromethyl)thiazol-5-yl)pyridin-2-yl)methyl)-3-methyl-N'-(pyrimidin-2-yl)quinoline-6-carbohydrazide] | 7.3 nM | 14 nM | 18.64 | 261 nM
8 | Cc1cc2cc(C(=O)N(Cc3ccc(-c4scnc4C4CC4)cn3)N(c3ncccn3)C3CC3)ccc2nc1N [Example 240, 2-amino-N'-cyclopropyl-N-((5-(4-cyclopropylthiazol-5-yl)pyridin-2-yl)methyl)-3-methyl-N'-(pyrimidin-2-yl)quinoline-6-carbohydrazide] | 3.9 nM | 36 nM | 11.00 | 396 nM
9 | CCc1ncsc1-c1ccc(CN(C(=O)c2ccc3nc(N)c(C)cc3c2)N(C)c2ncccn2)nc1 [Example 241, 2-amino-N-((5-(4-ethylthiazol-5-yl)pyridin-2-yl)methyl)-N',3-dimethyl-N'-(pyrimidin-2-yl)quinoline-6-carbohydrazide] | 7.3 nM | 37 nM | 18.27 | 676 nM
10 | Cc1cc2cc(C(=O)N(Cc3ccc(-c4scnc4CF)cn3)N(C)c3ncccn3)ccc2nc1N [Example 242, 2-amino-N-((5-(4-(fluoromethyl)thiazol-5-yl)pyridin-2-yl)methyl)-N',3-dimethyl-N'-(pyrimidin-2-yl)quinoline-6-carbohydrazide] | 5.9 nM | 8.4 nM | 27.98 | 235 nM
11 | Cc1cc2cc(C(=O)N(Cc3ccc(-c4scnc4C#N)cn3)N(C)c3ncccn3)ccc2nc1N [Example 243, 2-amino-N-((5-(4-cyanothiazol-5-yl)pyridin-2-yl)methyl)-N',3-dimethyl-N'-(pyrimidin-2-yl)quinoline-6-carbohydrazide] | 3.4 nM | 6.5 nM | 22.77 | 148 nM
12 | Cc1cc2cc(C(=O)N(Cc3ccc(-c4cnc(C(F)(F)F)s4)cn3)N(C)c3ncccn3)ccc2nc1N [Example 244, 2-amino-N',3-dimethyl-N'-(pyrimidin-2-yl)-N-((5-(2-(trifluoromethyl)thiazol-5-yl)pyridin-2-yl)methyl)quinoline-6-carbohydrazide] | 4.2 nM | 41 nM | 14.17 | 581 nM
13 | Cc1cc2cc(C(=O)N(Cc3ccc(-c4nncs4)cn3)N(c3ncccn3)C3CC3)ccc2nc1N [Example 250, N-((5-(1,3,4-thiadiazol-2-yl)pyridin-2-yl)methyl)-2-amino-N'-cyclopropyl-3-methyl-N'-(pyrimidin-2-yl)quinoline-6-carbohy drazide] | 3.7 nM | 41 nM | 20.00 | 820 nM
14 | CCOc1ccc(CN(C(=O)c2ccc3nc(N)c(C)cc3c2)N(C)c2ncccn2)nc1 [Example 264, 2-amino-N-((5-ethoxypyridin-2-yl)methyl)-N',3-dimethyl-N'-(pyrimidin-2-yl)quin oline-6-carbohydrazide] | 1 nM | 138 nM | 17.97 | 2480 nM
15 | Cc1cc2cc(C(=O)N(Cc3ccc(C(F)(F)F)cn3)N(C)c3nccc4c3ncn4C)ccc2nc1N [Example 265, 2-amino-N',3-dimethyl-N'-(1-methyl-1H-imidazo[4,5-c]pyridin-4-yl)-N-((5-(trifluoromethyl)pyridin-2-yl)methyl)quinoline-6-carbohydrazide] | 2 nM | 38 nM | 14.45 | 549 nM
16 | Cc1cc2cc(C(=O)N(Cc3ccc(C(F)(F)F)cn3)N(C)c3nccc4ccncc34)ccc2nc1N [Example 266, 2-amino-N',3-dimethyl-N'-(2,7-naphthyridin-1-yl)-N-((5-(trifluoromethyl)pyridin-2-yl)methyl)quinoline-6-carbohydrazide] | 2.6 nM | 231 nM | 13.60 | 3140 nM
17 | Nc1nc2ccc(C(=O)N(Cc3ccc(C(F)(F)F)cn3)N(c3ncccn3)C3CC3)cc2cc1Br [Example 270, 2-amino-3-bromo-N'-cyclopropyl-N'-(pyrimidin-2-yl)-N-((5-(trifluoromethyl)pyridin-2-yl)methyl)quinoline-6-carbohydrazide] | 4.9 nM | 110 nM | 13.74 | 1510 nM
